In PMC3422351, “Lipo-Endomorphin-1 Derivatives with Systemic Activity against Neuropathic Pain without Producing Constipation” (PLoS ONE, 2012):
Read-outs that look alike come from different tables or passages of the source. Square brackets hold non-standard residues; d marks the D form. Peptide text beside a SMILES is read from it. ξ: configuration not given here. Dmt = Cc1cc(O)cc(C)c1C[C@H](N)C(=O)O; ξGly(octyl) = CCCCCCCCC(N)C(=O)O

Experiments:
[1] = Caco-2 cell permeability assay; assay type: in vitro ADME, human; details: human, Caco-2, pH 7.4, across Caco-2 cell monolayers, mean ± SEM
Procedure: (§1) A suspension of 10^5 Caco-2 cells (100 µL) in culture medium supplemented with 1% penicillin/streptomycin (100 U/mL) was pipetted into polycarbonate cell culture inserts (pore size 0.4 µm, 6.5 mm diameter, Transwell®) in a 24-well plate, and the same medium was also added to the basolateral chamber (0.6 mL). Medium in both chambers was changed every second day.
(§2) After 21–28 days, the integrity of the tight junctions and the monolayers was assessed by measuring the transepithelial electrical resistance (TEER) using the Millicell-ERS epithelial volt-ohmmeter system (Millipore Corporation). Wells that gave TEER values of 1500–4280 (Ωcm^2) were used for the experiment.
(§3) After the initial TEER test, the Caco-2 cell monolayers were washed with HBSS-Hepes buffer (3×) and then incubated with the same buffer at 37°C. After 30 minutes the buffer was removed from the apical chamber and 100 µL aliquots of peptides, dissolved to a concentration of 200 µM in HBSS-Hepes containing 1% DMSO, were added to at least three wells. As a further test of the Caco-2 cell monolayer integrity, radiolabelled [^14C]-D-mannitol (1.80 µCi) in HBSS-Hepes buffer was added to three wells. The plates were incubated in a shaker set to 400 rpm at 37°C, and samples (0.4 mL) were collected from the basolateral chamber at 30, 90, 120 and 150 minutes and replaced with the same volume of buffer. At the end of the experiment, 50 µL were collected from the apical chamber of each well. LC-MS quantification of the peptides was performed as described in Caco-2 cell homogenate stability assay. The radioactivity of the [^14C]-D-mannitol samples was quantified by liquid scintillation counting (Liquid Scintillation Systems, BECKMAN LS3801, USA), and the apparent permeability (P app) for each compound was calculated using the following equation: [drawing 1] dC/dt steady-state rate of change in the chemical concentration (M/s) or radiochemical concentration (dpm mL/s) in the receiver chamber
(§4) Vr volume of the receiver chamber (mL)
(§5) A surface area of the cell monolayers
(§6) C0 initial concentration in the donor chamber (M or dpm/mL)

Caco-2 cell monolayers = assay: Caco-2 cell permeability assay; assay type: in vitro ADME, human; details: for P app (×10^−7, cm/s): across Caco-2 cell monolayers, mean ± SEM; for increase in permeability (P app) compared to peptide 1: Caco-2 cell monolayers, vs 1 in the same experiment
Procedure: as §1, §2, §3, §4, §5, §6

[2] = Caco-2 cell homogenate stability assay; assay type: in vitro ADME, human; details: for half-life: human, Caco-2, pH 7.4, Caco-2 cell homogenate, mean ± SEM, read-out: t 1/2 (min, Caco-2)
Procedure: A suspension of 5×10^4 Caco-2 cells in 100 µL culture medium was added to the wells of a 96-well cell culture plate. Culture medium supplemented with 1% penicillin/streptomycin (100 U/mL) was changed every second day.
After 21–28 days, the cells were washed with 0.2% EDTA (2×100 µL) and Hank's Balanced Salt Solution containing 25 mM 4-(2-hydroxyethyl)-1-piperazineethanesulfonic acid (HBSS-Hepes, pH 7.4; 3×100 µL). HBSS–Hepes buffer was added to each well (100 µL), and the cells were disrupted by two one-second pulses with a Sonics Vibracell ultrasonic processor set at 60% amplitude at 130 W. The cell debris was removed by centrifugation (2000 rpm, 5 minutes) and the protein content of three wells was determined using the Bio-Rad protein assay kit, by comparison with a standard curve generated from known concentrations of bovine serum albumin. The protein content of the cell homogenate was adjusted to 0.6–0.9 mg/mL in a clean 96-well plate.
The peptides were dissolved in HBSS–Hepes buffer containing 1% DMSO (dimethyl sulfoxide), and each peptide solution (200 µM, 100 µL) was added to three wells and the plate was incubated at 37°C in a shaker at 400 rpm. At pre-selected time points (5, 10, 15, 20, 30, 40, 50, 60, and 120 min), samples (10 µL) were collected and enzymatic digestion was stopped by addition of 5 µL TFA. These samples were then diluted with water (75.5 µl) and DMSO (9.5 µL) and analyzed by LC-MS to determine the concentration of peptide remaining in the solution.
LC-MS was carried out on a Luna Phenomenex C18 column (2.0×50 mm, 5 µm) with a gradient of 100% A (0.1% formic acid in water) to 100% B (0.1% formic acid in acetonitrile/water 9∶1) over 5.5 minutes at a flow rate of 0.3 mL/min. The mass spectrometer was set to selective ion monitoring in the positive ion electrospray mode. A standard curve was generated from standards containing known peptide concentrations, and used to determine the peptide concentration in the samples.

Plasma stability assay = assay type: in vitro ADME; details: human plasma, 37°C, mean ± SEM; read-out: t 1/2 (min, Plasma)
Procedure: Fresh human plasma was obtained from healthy and consenting volunteers (ethics approval number: 2006000950). The peptides were dissolved in PBS containing 5% DMSO (1 mg/mL), and 300 µL aliquots were mixed with 300 µL of pre-warmed plasma and incubated at 37°C. At selected time points (5, 10, 20, 30, 40, 60, 90, and 120 min), samples (50 µL) were collected and plasma proteins precipitated by addition of acetonitrile (75 µL). After centrifugation (10,000 rpm, 10 minutes), the peptide content of the supernatant was analyzed by HPLC with a Vydac C18 column (4.6×250 mm, 5 µm) at a flow rate of 1 mL/min and a gradient of 100% A (0.1% TFA in water) to 100% B (0.1% TFA in acetonitrile/water 9∶1) over 30 minutes.

MOP receptor [3] = biological target: T1, MOP receptor (Homo sapiens, UniProt P35372); assay: SH-SY5Y receptor binding assay ([3H]DAMGO displacement from whole cells); details: DPDPE 1 µM, read-out: K iμ
T1 construct: SH-SY5Y cells, which endogenously expresses MOP and δ-opioid (DOP) receptors; host or cells: SH-SY5Y human neuroblastoma cells
Procedure: A suspension of SH-SY5Ycells (10^5 cells per well) was seeded into 24-well plates and incubated overnight. The cells were washed with PBS and pre-incubated with 300 µL binding buffer (50 mM Tris buffer, pH 7.4, 2% BSA). A mixture of [^3H]-DAMGO (100 µL, 15 nM), DPDPE (100 µL, 1 µM) and 100 µL aliquots of each peptide in a range of concentrations (0.1 nM to 100 µM) was added to each well and the plate was incubated at 37°C. An excess of [^3H]-DAMGO (1 µM) was used to determine non-specific binding and buffer (100 µL) was measured as the blank. After 60 minutes, the cells were washed with PBS and 1 M NaOH (0.5 mL) was used to lyse the cells. The radioactivity of the cell suspension was measured by scintillation counting (Liquid Scintillation Systems, BECKMAN LS3801, USA). Data analysis was performed using the one-site competition binding model (GraphPad Prism™ (v5.0) software).

MOP receptor [4] = biological target: T1, MOP receptor; assay: Inhibition of forskolin-stimulated cAMP formation in SH-SY5Y cells; assay type: cell-based
Procedure: SH-SY5Y cells, which express MOP and DOP receptors, were seeded (10^5 cells/mL, 100 µL) in a 96-well plate and incubated overnight to reach 80% confluence. Culture medium supplemented with 30 µM forskolin was used make peptide solution (100 nM) and aliquots (100 µL) of each peptide were added to three wells. After incubation at 37°C for 30 minutes, the culture medium was removed and lysis buffer from a cAMP Biotrak EIA kit (Amersham, Buckinghamshire, UK) was added, followed by an anti-cAMP antibody. After incubation at 4°C for 2 hours, a cAMP peroxidase conjugate was added and the plate incubated for another hour at 4°C. Then, the cell lysate was incubated with a 3,3′5,5′-tetramethylbenzidine (TMB) substrate provided by the Biotrak EIA kit and finally […] sulfuric acid was added. Absorbance of each well was determined using a plate reader at 450 nm and compared with a cAMP standard curve (concentration 0–3.2 pmol). Data was represented as a percentage of the maximum cAMP response to forskolin, shown as a mean (±SEM) of three separate experiments each performed in triplicate (GraphPad Prism™ (v5.0) software).

[5] = test system: castor oil-induced diarrhea in rats; assay: Castor oil-induced diarrhea test in rats; assay type: in vivo, rat
Procedure: (§7) • Castor oil-induced diarrhea test in rats The ability of test items to inhibit castor-oil induced diarrhea as an index of constipation was assessed. Prior to the start of experimentation, drug-naive rats weighing 200–250 g were fasted for 16 h with free access to water. Individually caged rats were acclimatized for 1 h without access to food or water prior to drug or vehicle administration. […] Rats were gavaged with 1 mL of castor oil five minutes after test item or vehicle administration. Presence or absence of diarrhea was recorded every hour according to a scoring system based on the weight of feces boli and the feces consistency. Weight was scored from 0 (no feces) to 3 (>3 g of feces) and consistency was scored from 0 (normal-shape feces) to 3 (shapeless feces with large amounts of liquid). When both weight of feces and the feces consistency were scored at ≥2, diarrhea was considered to be present. • Charcoal test The charcoal test was assessed in groups of drug-naive rats to measure gastrointestinal (GI) transit. […] The total length of the small intestine from the pylorus to the ileocaecal junction as well as the most distal point of migration of the charcoal meal was measured. The percentage of the distance which the charcoal meal travelled relative to the total length of the small intestine (GI propulsion) was calculated.

[6] = test system: gastrointestinal transit of a charcoal meal in rats; assay: Charcoal test (gastrointestinal transit); assay type: in vivo, rat
Procedure: as §7

[7] = test system: CCI-rat model of neuropathic pain; assay: Antinociception in CCI-rat model of neuropathic pain (Von Frey paw withdrawal thresholds); assay type: in vivo; details: morphine i.v. at equi-effective dose, CCI-rats, p<0.001 vs vehicle
From the text: Chronic constriction injury (CCI) of the sciatic nerve in the rat was used as a model of neuropathic pain and was induced according to the method of Bennett and Xie [21]. Briefly, rats were anesthetized with 3% isoflurane delivered in oxygen. A 7 mm segment of the left common sciatic nerve was exposed at mid-thigh level, proximal to the sciatic trifurcation. […] The surgical incision was closed by suturing the muscles and skin in layers. To prevent infection, topical antibiotic powder was applied to the wound. The day of CCI surgery was regarded as day 0. Rats were inspected daily considering posture of the affected hindpaw, exploring behavior, body weight, water intake, and signs of autotomy until experimentation day, which was 14 days post-surgery.
Paw withdrawal thresholds (PWT's), expressed in grams, were measured using a set of calibrated Von Frey filaments (Touch Test- North Coast, 800-821-9319). Animals were acclimatized for at least 15 min in wire mesh metabolic cages (20×20×17 cm). Von Frey filaments which delivered forces in the range 2–20 g at 2 g intervals were used according to the up-down method [20]. Filaments were applied to the plantar surface of the footpad of the hindpaw so that the filament bent slightly for 3 seconds. […]

[8] = separate experiment [d] with 1 and 3 tested together

T1 sequence (P35372 whole entry): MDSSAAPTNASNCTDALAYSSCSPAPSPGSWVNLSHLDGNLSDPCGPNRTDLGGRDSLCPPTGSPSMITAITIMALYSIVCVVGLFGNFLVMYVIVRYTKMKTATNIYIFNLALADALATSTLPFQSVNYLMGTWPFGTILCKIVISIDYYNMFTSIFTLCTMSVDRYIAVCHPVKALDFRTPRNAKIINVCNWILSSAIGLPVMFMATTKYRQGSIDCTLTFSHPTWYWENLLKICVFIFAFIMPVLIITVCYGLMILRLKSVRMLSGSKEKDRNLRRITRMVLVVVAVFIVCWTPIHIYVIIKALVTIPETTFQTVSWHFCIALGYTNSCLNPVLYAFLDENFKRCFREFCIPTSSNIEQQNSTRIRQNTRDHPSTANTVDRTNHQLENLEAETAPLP

| Structure (SMILES) | Papp A→B at 150 min, 200 µM ([1]; LC/MS) [×10⁻⁶ cm/s] | Papp A→B at 150 min, 200 µM [1, 8] [×10⁻⁶ cm/s] | P app (×10^−7, cm/s) (Caco-2 cell monolayers; LC/MS) | half-life ([2]; 37°C) [min] | half-life (Plasma stability assay) [min] | Ki (MOP receptor [3]; mean ± SEM) [nM] | IC50 (MOP receptor [4]) [nM] | increase in permeability (P app) compared to peptide 1 (Caco-2 cell monolayers) [fold] | also measured |
| --- | --- | --- | --- | --- | --- | --- | --- | --- | --- |
| NC(=O)[C@H](Cc1ccccc1)NC(=O)[C@H](Cc1c[nH]c2ccccc12)NC(=O)[C@@H]1CCCN1C(=O)[C@@H](N)Cc1ccc(O)cc1 [Compound 1, Tyr-Pro-Trp-Phe-NH2, reference compound] | 0.02 ± 0.002 | 0.1 ± 0.034 | 0.2 (±0.02) ×10^−7 cm/s |  |  |  |  |  |  |
| Cc1cc(O)cc(C)c1C[C@H](N)C(=O)N1CCC[C@H]1C(=O)N[C@@H](Cc1c[nH]c2ccccc12)C(=O)N[C@@H](Cc1ccccc1)C(N)=O [Compound 2] | 0.25 ± 0.03 |  | 2.5 (±0.3) ×10^−7 cm/s | 24.1 ± 3.6 | 4.2 ± 1.5 | 0.06 ± 0.01 | 0.3 ± 0.02 |  |  |
| CCCCCCCCC(N)C(=O)N[C@@H](Cc1ccc(O)cc1)C(=O)N1CCC[C@H]1C(=O)N[C@@H](Cc1c[nH]c2ccccc12)C(=O)N[C@@H](Cc1ccccc1)C(N)=O (stereo partly shown) [Compound 3] (H-[ξGly(octyl)]YPWF-NH2) |  | 9.01 ± 1.22 |  |  |  |  | 31.4 ± 1.45 | ~90 | half-life [2, 8]: 77.4 ± 7.1 min; P app (×10^−7, cm/s) (Caco-2 cell monolayers; [8]): 90.1 (±12.2) ×10^−7 cm/s; Ki (MOP receptor [3]; separate experiment [d] with 1 and 3, mean ± SEM): 25.7 ± 1.3 nM; inhibition of castor oil-induced diarrhea ([5]; i.v. doses up to 16 µmol/kg, p>0.05): No significant inhibition; GI propulsion (%) ([6]; i.v. 16 µmol/kg, mean (± SEM)): 64.3 (±3.0) % |
| CCCCCCCCC(N)C(=O)N[C@@H](Cc1c(C)cc(O)cc1C)C(=O)N1CCC[C@H]1C(=O)N[C@@H](Cc1c[nH]c2ccccc12)C(=O)N[C@@H](Cc1ccccc1)C(N)=O (stereo partly shown) [Compound 4] (H-[ξGly(octyl)][Dmt]PWF-NH2) | 1.24 ± 0.47 |  | 12.4 (±4.7) ×10^−7 cm/s | 96.3 ± 8.3 | 41.4 ± 3.3 | 0.5 | 1.3 ± 0.22 | 62 | increase in Caco-2 cell homogenate stability compared with parent peptide 1 ([2]; vs peptide 1 tested in the same experiment): 34 fold |
| CN1CC[C@]23c4c5ccc(O)c4O[C@H]2[C@@H](O)C=C[C@H]3[C@H]1C5 [morphine, reference compound] |  |  |  |  |  |  |  |  | antinociception in the contralateral (uninjured) hindpaw [7]: produced significant antinociceptive activity; inhibition of castor oil-induced diarrhea ([5]; i.v. 2 µmol/kg, p<0.001): inhibited castor oil-induced diarrhea significantly; GI propulsion (%) ([6]; i.v. 2 µmol/kg, mean ± SEM, p<0.001): 29.5±4.6% |
